Results as given in patent US20080234368A9, “Therapeutic compositions and methods of use” (Trustees of Dartmouth College, priority 1998, published 2008).

Assays:
[1] = system: LCDB acute myelogenous leukemia cell line; test: Monocytic differentiation, α-naphthyl acetate esterase staining; format: cell-based, human; conditions: TGF-β1 2.5 ng/ml, 48 h
Experimental: CDDO induces monocytic differentiation in the poorly differentiated LCDB acute myelogenous leukemia cell line, derived from a chemotherapy-resistant patient at the NCI Pediatric Oncology Branch. FIG. 11 illustrates LCDB cells seeded in RPMI 1640/2% FBS, either alone (11A), with 2.5 ng/ml TGF-β1 (11B), with 10^−8 M CDDO (11C), or with both TGF-β1 and CDDO (11D). After 48 h, cytospin slide preparations were made and stained for α-naphthyl acetate esterase activity (kit from Sigma). PC12 cells were cultured for 5 days in gridded dishes in DMEM/10% FBS and 5% horse serum (Smith et al., 1997), either alone (11E), with 100 ng/ml 7S NGF (11F), with 10^−6 M CDDO (11G), or with both NGF and CDDO (11H). […] Methods for quantitative image analysis of size of cells and neurites have been described (De 1a Torre et al., 1997). Control cells in FIG. 11E are approximately 10 μm in diameter. 3T3-L1 cells were grown to confluency in DMEM/5% calf serum, and then treated once with CDDO in DMEM/10% FBS (FIG. 12A) or with CDDO and/or LG100268 in DMEM/10% FBS (FIG. 12B). Every two days thereafter, medium was changed to DMEM/10% FBS, without added CDD0 or LG100268. Cells were harvested on day 8 (FIG. 12A) or day 6 (FIG. 12B), and GPDH was measured in lysates, using a standard assay for consumption of NADH at 340 nm (Wise and Green, 1979).

[2] = system: MCF-7 breast carcinoma cells; test: Suppression of thymidine incorporation, dose-response (FIG. 13); format: cell-based, human; conditions: MCF-7 with 17-β-estradiol, 72 h; oleanolic acid statement at concentrations of 1 μM or less
Experimental: (§1) Inhibitors of cell proliferation are known to be useful chemopreventive and chemotherapeutic agents. CDDO was tested against a wide variety of cells derived from highly aggressive leukemias and carcinomas, as well as from non-neoplastic tissues. NRP-152 cells were grown as described in Danielpour et al., 1994. MCF-7 cells were grown in phenol red-free RPMI 1640/10% charcoal-stripped FBS with added 17-β-estradiol (10 μM). Triterpenoids were added at the time of plating, and 72 h later ^3H-thymidine (1 μCi/well) was added for the final 2 h of incubation. Incorporation of thymidine was measured after cells were precipitated with TCA (10%), washed, and solubilized. The symbols used in FIG. 13 are CDDO, ▪; TP-82, ◯; and oleanolic acid; ●.

[3] = system: NRP-152 non-malignant prostate epithelium cells; test: as above; format: cell-based, rat; conditions: NRP-152, 72 h; oleanolic acid statement at concentrations of 1 μM or less
Experimental: as §1

[4] = system: IFN-γ-induced NO production in mouse macrophages; test: Inhibition of IFN-γ induced NO production in mouse macrophages; format: cell-based; conditions: Mus musculus, Macrophage; 4 ng/mL IFN-γ, 48 hours, nitrite by Griess reaction; average of two separate experiments; read-out: IC50 for Inhibition of IFN-γ-Induced NO Production in Mouse Macrophages
Experimental: The inhibitory activities of these compounds and dexamethasone on IFN-γ induced NO production in mouse macrophages is shown below in Table 1. The following procedure for the assay ws used. Macrophages were harvested from female mice injected intraperitoneally four days previously with 4% thioglycollate. These cells were seeded in 96-well tissue culture plates and incubated with 4 ng/mL IFN-γ in the presence or absence of inhibitory test compounds. After 48 hours NO production (measured as nitrite by the Griess reaction) was determined. Full details of the assay are given in Ding et al., 1990; Bogdan et al., 1992.

## TGF-01: transforming growth factor-β1
[1]
  induction of α-naphthyl esterase activity (monocytic differentiation): induced x-naphthyl esterase activity

## 3,11-dioxoolean-1,9-dien-28oic acid [TP-82]
[2]
  suppressing thymidine incorporation: markedly less active
[3]
  suppressing thymidine incorporation: markedly less active

## CC1(C)CC[C@]2(C(=O)O)CC[C@]3(C)C(=CC[C@@H]4[C@@]5(C)CC[C@H](O)C(C)(C)[C@@H]5CC[C@]43C)[C@@H]2C1 [oleanolic acid, reference compound]
[2]
  suppressing thymidine incorporation: virtually without activity
[3]
  suppressing thymidine incorporation: virtually without activity

## C[C@@H]1C[C@H]2[C@@H]3CCC4=CC(=O)C=C[C@]4(C)[C@@]3(F)[C@@H](O)C[C@]2(C)[C@@]1(O)C(=O)CO [dexamethasone, reference compound]
[4]
  IC50: 1 nM
